Laboratory results as given in article PMC6037691, “Selenazolyl-hydrazones as Novel Selective MAO Inhibitors With Antiproliferative and Antioxidant Activities: Experimental and In-silico Studies” (Frontiers in Chemistry, 2018).

Columns and labels:
[1] = system: SW1573 (non-small cell lung); experiment: Antiproliferative activity, SW1573; format: cell-based, human; settings: Homo sapiens
Experimental: (§1) The in vitro antiproliferative activity of investigated compounds was evaluated against six human solid tumor cell lines: A549 (non-small cell lung), HBL-100, (breast), HeLa (cervix), SW1573 (non-small cell lung), as drug sensitive lines, T-47D (breast) and WiDr (colon) as drug resistant lines. These cell lines were a kind gift from Prof. G. J. Peters (VU Medical Center, Amsterdam, The Netherlands). For selectivity studies, the human fibroblasts BJ-hTert cell line was used, which was obtained from Dr. R. Freire (HUC, Tenerife, Canary Islands). Cells were kept in culture medium under standard conditions: RPMI 1640 medium, fetal bovine serum (5%), glutamine (2 mM), penicillin G (100 units/mL) and streptomycin (0.1 mg/mL). Antiproliferative tests were conducted as described earlier (Skehan et al., [1990]; Miranda et al., [2006]). Tested compounds were dissolved in DMSO at an initial concentration of 40 mM. DMSO was used as negative control (0.25% v/v). Antiproliferative activity of the compounds was expressed as GI50, which is the concentration of the compound that inhibits 50% of the culture growth.

[2] = system: A549 (non-small cell lung); experiment: Antiproliferative activity, A549; format: cell-based, human; settings: Homo sapiens
Experimental: as §1

[3] = system: human fibroblasts BJ-hTert cell line; experiment: Selectivity, non-transformed fibroblasts BJ-hTert; format: cell-based; settings: Fibroblast; BJ-hTert normal human cell line; concentrations up to 100 μM
Experimental: as §1

[4] = system: HBL-100 (breast); experiment: Antiproliferative activity, HBL-100; format: cell-based, human; settings: Homo sapiens
Experimental: as §1

[5] = system: WiDr (colon); experiment: Antiproliferative activity, WiDr; format: cell-based, human; settings: for GI50: Homo sapiens
Experimental: as §1

[6] = system: T-47D (breast); experiment: Antiproliferative activity, T-47D; format: cell-based, human; settings: for GI50: Homo sapiens, T47D
Experimental: as §1

[7] = system: HeLa (cervix); experiment: Antiproliferative activity, HeLa; format: cell-based, human; settings: Homo sapiens
Experimental: as §1

[8] = biological target: T1, MAO A (Homo sapiens, UniProt P21397); experiment: MAO A inhibition, discontinuous fluorimetric kynuramine assay; format: biochemical; settings: for inhibition at 1 µM: 1 μM inhibitor, mean ± SD, n = 2, normalized to control
T1 construct: purchased Sigma-Aldrich
T1 sequence (P21397 1-527): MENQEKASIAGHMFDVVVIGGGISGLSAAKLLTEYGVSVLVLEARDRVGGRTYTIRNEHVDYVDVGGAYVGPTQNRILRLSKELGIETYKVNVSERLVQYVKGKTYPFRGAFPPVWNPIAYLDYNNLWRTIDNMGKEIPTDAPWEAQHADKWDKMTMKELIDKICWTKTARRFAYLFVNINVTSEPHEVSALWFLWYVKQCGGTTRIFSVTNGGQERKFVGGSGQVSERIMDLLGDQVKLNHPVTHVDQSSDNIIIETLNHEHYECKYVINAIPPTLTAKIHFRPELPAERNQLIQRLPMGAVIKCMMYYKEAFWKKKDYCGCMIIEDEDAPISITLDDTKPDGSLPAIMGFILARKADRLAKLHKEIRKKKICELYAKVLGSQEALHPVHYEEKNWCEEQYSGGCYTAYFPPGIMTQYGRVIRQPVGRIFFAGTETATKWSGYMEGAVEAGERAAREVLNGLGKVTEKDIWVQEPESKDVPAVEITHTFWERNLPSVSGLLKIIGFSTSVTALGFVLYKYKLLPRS
Experimental: (§2) MAO A and B inhibition capacities were investigated using a discontinuous fluorimetric assay (Meiring et al., [2013]) as described previously by using human recombinant membrane-bound MAO purchased from Sigma-Aldrich (Affini et al., [2018]). Briefly, remained enzyme activity with inhibitor, either 1 μM (one-point) or concentrations ranging from 0.0001 to 10 μM, was assessed in the presence of kynuramine [2 × KM, KM = 20 μM (MAO A), KM = 30 μM (MAO B)] in potassium phosphate buffer (pH 7.4). Reactions were started by addition of enzyme and stopped by manual addition of sodium hydroxide (2 N) after 20 min. Enzyme activity was determined by detection of 4-hydroxyquinoline (λEx = 320 nm, λEm = 405 nm). Data were analyzed using GraphPad PRISM 6. For one-point measurements data were calculated as percentage of control and expressed as mean ± standard deviation (%). […] Data were obtained from two (one-point measurements) or at least three (IC50 values) independent experiments, each performed in duplicates.

[9] = DPPH scavenging antioxidant assay; settings: concentration providing 50% of radicals scavenging activity; mean ± SD, n = 3
Experimental: The experiments were performed according to the literature protocol (Prior et al., [2005]). All tested compounds were initially dissolved in DMSO. The initial concentration of DPPH in methanol was 6.58 × 10^−5 M. A volume of 140 μL of DPPH solution was placed into a 96-well microplate, and then 10 μL solution of the tested compounds was added. Pure DMSO (10 μL) was used as the control. The absorbance at 517 nm was measured after 30 min period of incubation in the dark at 25°C. The Equation (1) was used for calculation of the scavenging activity:
(1) Scavenging activity (%)=Acontrol- Asample/Acontrol×100
where Asample and Acontrol refer to the absorbances at 517 nm of the sample and control, respectively. IC50 values were calculated from the graph of scavenging activity against the concentrations of the samples. IC50 represents the total antioxidant concentration of the sample which decreases the amount of the initial DPPH radical by 50%. Ascorbic acid (vitamin C) was used as positive control (concentration range 10–500 μM).

[10] = Total antioxidant capacity (TAOC), modified phosphomolybdenum method; settings: concentration providing 0.500 of absorbance at 695 nm; mean ± SD, n = 3
Experimental: (§3) Volume of 0.4 mL of sample solution (50–1,000 μM) was mixed with 1.6 mL of reagent solution [0.6 M H2SO4, 28 mM Na3PO4, and 4 mM (NH4)2MoO4] and resulting mixtures were incubated at 95°C for 90 min. The cooled reaction mixtures were then centrifuged for 10 min (3,000 rpm). The absorbance of the supernatant solution was measured, 1 h after centrifugation, at 695 nm against reagent solution as blank. An increased absorbance in reading in both assays indicated increased antioxidant power, expressed as EC50 values (the sample concentration giving absorbance of 0.500 from the graph of absorbance at 700 nm or 695 nm against compound concentration) (Prieto et al., [1999]).

[11] = biological target: T2, MAO B (Homo sapiens, UniProt P27338); experiment: MAO B inhibition, discontinuous fluorimetric kynuramine assay; format: biochemical; settings: for inhibition at 1 µM: 1 μM inhibitor, mean ± SD, n = 2, normalized to control
T2 construct: purchased Sigma-Aldrich
T2 sequence (P27338 1-520): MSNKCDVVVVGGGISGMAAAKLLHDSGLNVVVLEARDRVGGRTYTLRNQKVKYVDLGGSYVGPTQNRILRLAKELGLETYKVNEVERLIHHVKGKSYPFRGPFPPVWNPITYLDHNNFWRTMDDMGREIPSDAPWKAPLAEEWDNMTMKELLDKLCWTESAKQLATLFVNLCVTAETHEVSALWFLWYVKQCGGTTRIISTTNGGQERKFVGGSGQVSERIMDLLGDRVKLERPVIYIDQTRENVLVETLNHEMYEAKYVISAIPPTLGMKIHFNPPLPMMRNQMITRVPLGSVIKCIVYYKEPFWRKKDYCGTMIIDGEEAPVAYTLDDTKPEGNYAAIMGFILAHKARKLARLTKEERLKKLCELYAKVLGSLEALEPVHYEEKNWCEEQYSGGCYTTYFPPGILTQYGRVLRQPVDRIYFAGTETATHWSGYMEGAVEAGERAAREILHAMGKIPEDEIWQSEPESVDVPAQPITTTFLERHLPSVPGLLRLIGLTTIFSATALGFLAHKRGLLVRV
Experimental: as §2

[12] = system: six human solid tumor cell lines; experiment: Antiproliferative activity, panel as a whole; format: cell-based; parameters: key: moderate activity (GI50 = 10–100 μM); good activity (GI50 = 1–10 μM); inactive (GI50 > 100 μM)
Experimental: as §1

[13] = Total reducing power (TRP), modified potassium ferricyanide reduction method; settings: concentration providing 0.500 of absorbance at 700 nm; mean ± SD, n = 3
Experimental: The mixture containing 0.5 mL of phosphate buffer (0.2 M, pH = 6.6), 0.5 mL of K3[Fe(CN)6] (1%; w/v) and 0.5 mL of the samples (100–1,500 μM) was incubated at 50°C for 20 min. A volume of 0.5 mL of trichloroacetic acid (TCA, 10%; w/v), 0.5 mL of Milli-Q water and 0.5 mL of FeCl3 (0.1%; w/v) was added, followed by intensive vortexing. The absorbance of the resulting mixture was measured after 60 min at 700 nm using phosphate buffer as blank (Oyaizu, [1986]).
as §3

[14] = mean, 95% CI, at least three experiments

Question: With `O=c1[nH]cc(F)c(=O)[nH]1` [5-fluorouracil, reference compound] as the molecule, how does the GI50 [1] read?
Answer: The GI50 was 4.6 ± 1.5 µM.

Question: And the GI50 [2]?
Answer: Its GI50 is over 100 µM.

Question: And the GI50 [3]?
Answer: The GI50 was 5.5 ± 0.5 µM.

Question: And the GI50 [4]?
Answer: Its GI50 is 4 ± 0.7 µM.

Question: What about the GI50 [5] of the same molecule?
Answer: Its GI50 is 49 ± 6.7 µM.

Question: And the GI50 [6]?
Answer: The GI50 was 47 ± 18 µM.

Question: And the GI50 [7]?
Answer: Its GI50 is 15 ± 4.7 µM.

Question: What does the source list for `Cc1ccc(-c2c[se]c(NN=Cc3ccccc3)n2)cc1` [Compound 1-Me, 2-(2-benzylidenehydrazinyl)-4-(p-tolyl)-1,3-selenazole]?
Answer: GI50 [1]: 47 ± 3 µM; GI50 [2]: > 100 µM; inhibition at 1 µM [8]: 12.7 ± 3.5%; IC50 [9]: 45.1 ± 6.53 µM; GI50 [3]: > 100 µM; melting point: 174 to 176 °C; EC50 [10]: 603 ± 61 µM; GI50 [4]: > 100 µM; inhibition at 1 µM [11]: 23.4 ± 17.1%; GI50 [5]: > 100 µM; GI50 ([6]; T-47D): > 100 µM; antiproliferative activity class against five cell lines ([12]; five cell lines of the six): inactive; GI50 [7]: > 100 µM; EC50 [13]: 966 ± 88 µM

Question: What does the source list for `O=[N+]([O-])c1ccc(C=NNc2nc(-c3ccccc3)c[se]2)cc1` [Compound 4, 2-(2-(4-nitrobenzylidene)hydrazinyl)-4-phenyl-1,3-selenazole]?
Answer: GI50 [1]: 23 ± 1.2 µM; GI50 [2]: 16 ± 3.5 µM; inhibition at 1 µM [8]: 71.9 ± 3.5%; IC50 [8, 14]: 0.258 µM; IC50 [9]: 44.8 ± 2.3 µM; GI50 [3]: > 100 µM; EC50 [10]: 433 ± 43 µM; GI50 [4]: > 100 µM; inhibition at 1 µM [11]: 96.3 ± 0.5%; IC50 [11, 14]: 0.073 µM; antiproliferative activity class WiDr [5]: good activity (good activity (GI50 = 1–10 μM)); GI50 [5]: 6.9 ± 1.3 µM; GI50 ([6]; T-47D): 6.3 ± 1.1 µM; antiproliferative activity class T-47D ([6]; T-47D): good activity (good activity (GI50 = 1–10 μM)); GI50 [7]: 31 ± 8.5 µM; EC50 [13]: 376 ± 51 µM

Question: Which GI50 [1] does the source give for `Cc1ccc(-c2c[se]c(NN=Cc3ccc([N+](=O)[O-])cc3)n2)cc1` [Compound 4-Me, 2-(2-(4-nitrobenzylidene)hydrazinyl)-4-(p-tolyl)-1,3-selenazole] here?
Answer: Its GI50 is over 100 µM.

Question: What about the GI50 [2] of the same molecule?
Answer: Its GI50 is over 100 µM.

Question: And the inhibition at 1 µM [8]?
Answer: Its inhibition at 1 µM is 22.1 ± 2.1%.

Question: What about the IC50 [9] of the same molecule?
Answer: The IC50 was 40.1 ± 4.7 µM.

Question: And the GI50 [3]?
Answer: Its GI50 is over 100 µM.

Question: And the melting point?
Answer: The melting point was 228 to 230 °C.

Question: What about the EC50 [10] of the same molecule?
Answer: Its EC50 is 579 ± 51 µM.

Question: What about the GI50 [4] of the same molecule?
Answer: The GI50 was over 100 µM.

Question: And the inhibition at 1 µM [11]?
Answer: Its inhibition at 1 µM is 48.1 ± 2.9%.

Question: What about the GI50 [5] of the same molecule?
Answer: The GI50 was over 100 µM.

Question: And the GI50 ([6]; T-47D)?
Answer: Its GI50 is over 100 µM.

Question: What about the “antiproliferative activity class against all six cell lines” value ([12]; all six cell lines) of the same molecule?
Answer: Its value is “inactive”.

Question: And the GI50 [7]?
Answer: The GI50 was over 100 µM.

Question: And the EC50 [13]?
Answer: Its EC50 is 495 ± 48 µM.

Question: What does the source list for `COc1ccc(-c2c[se]c(NN=Cc3ccc([N+](=O)[O-])cc3)n2)cc1` [Compound 4-OMe, 4-(4-methoxyphenyl)-2-(2-(4-nitrobenzylidene)hydrazinyl)-1,3-selenazole]?
Answer: GI50 [1]: 26 ± 17 µM; GI50 [2]: 16 ± 5.3 µM; inhibition at 1 µM [8]: 49.4 ± 1.3%; IC50 [9]: 79.2 ± 3.9 µM; GI50 [3]: > 100 µM; melting point: 208 to 211 °C; EC50 [10]: 645 ± 53 µM; GI50 [4]: 47 ± 13 µM; inhibition at 1 µM [11]: 42.5 ± 19%; GI50 [5]: > 100 µM; GI50 ([6]; T-47D): 66 ± 17 µM; GI50 [7]: 33 ± 10 µM; EC50 [13]: 398 ± 44 µM

Question: For `O=C1O[C@H]([C@@H](O)CO)C(O)=C1O` [vitamin C, Ascorbic acid, reference compound], which IC50 [9] is on record?
Answer: The IC50 was 79.1 ± 1.8 µM.

Question: And the EC50 [10]?
Answer: Its EC50 is 140 ± 10 µM.

Question: What about the EC50 [13] of the same molecule?
Answer: Its EC50 is 155 ± 39 µM.
